Like-named read-outs stand apart in the source and are kept apart here.
What was measured:
[1] = system: patients receiving cisplatin; conditions: cited from earlier work
[2] = after STS local administration
Method: The time-concentration data was used for calculations. The area under the concentration-time curve (AUC) was determined by the trapezoidal rule. Terminal elimination half-lives of sodium thiosulfate (STS) in perilymph and plasma were determined by use of WIN NONLIN version 2.0 SCI.
30 guinea pigs (250-350 g) without sign of otitis media stayed for ˜3 days acclimation, and ready for PK study. Two anesthesia methods (Zoletil+Xylazine with head up 30 min) and Isoflurane (animal wake up immediately post-injection)] were used. 15 animals for each group.
The subjection guinea pig was anesthetized with zolazepam hydrochloride (Zoletil) and Xylazine or isoflurane inhalation. A solution of freshly prepared sodium thiosulfate solution was loaded in a Hamilton syringe with 26 G needle. The needle was carefully inserted into the left middle ear cavity via the tympanic membrane aiming to cochlear round window. ˜50 μL of dosing solution was injected. The animal was positioned head up for ˜30 min prior to waking up in Zoletil and Xylazine or wake up immediately in isoflurane inhalation.
In C-subgroup of each group, animal blood was systemically drawn (˜100 uL) via bilateral saphenous vein at the multiple time points. Put the collection blood in heparinized tube and stay ˜20 min. ˜50 μL of plasma was collected in microtube and put in −80° C. for future analysis.
STS concentrations were quantitatively analyzed by HPLC using an LC-20AT with a SPD-M20A UV-Vis detector (Shimadzu, Kyoto, Japan) and a LiChrospher RP-select B LiChroCART 250-4 […] column (EMD Millipore Corp, Darmstadt, Germany). All samples were prepared using a method similar to that described by Togawa et al. (1992).

[3] = system: cisplatin hearing loss model
Text: A solution of freshly prepared sodium thiosulfate solution was loaded in a Hamilton syringe with 26 G needle.

[4] = system: cisplatin induced hearing loss; conditions: intratympanic administration, multiple clinical trials; cited from earlier work
[5] = Calculated osmolarity of STS formulation; type: physicochemical; conditions: aqueous solution of sodium thiosulfate 0.1M to 0.5M
[6] = system: cisplatin induced hearing loss; conditions: intratympanic injection, animal studies; cited from earlier work
[7] = system: cisplatin induced hearing loss; conditions: systemic administration, humans; cited from earlier work

Compound	cure rate ([1]; cisplatin based chemotherapy, testicular cancer)	patients developing hearing loss ([1]; human, in vivo)	Tmax of systemic thiosulfate [2]	systemic thiosulfate concentration [2]	time until systemic thiosulfate concentration recovered to normal [2]	hearing protection ([3]; 0.2M concentration, simple aqueous formulation without gelling agent, guinea pig cisplatin hearing loss model)	protection of the sodium thiosulfate treated ears (ABR) ([3]; all groups (2.5%, 5% and 10% sodium thiosulfate), TT or IT injection ~30 min before cisplatin 10 mg/kg iv, ABR 7 days after infusion, treated vs untreated contralateral ear)	hearing protection [4]	calculated osmolarity [5]	effect on cisplatin induced hearing loss [6]	effect on cisplatin induced hearing loss [7]
N.N.[Cl][Pt][Cl] [cisplatin, Cisplatin]	> 90%	60%-80%	–	–	–	–	–	–	–	–	–
O=S([O-])([O-])=S.[Na+].[Na+] [sodium thiosulfate]	–	–	approximately 30 min	increased	around 1 hour	full hearing protection	nearly completed protection	no meaningful hearing protection	< 1500 mOsm/L	prevented the cisplatin induced hearing loss	mitigate cisplatin induced hearing loss
